Results from ChEMBL document CHEMBL3877319, “Synthesis of Ofornine mimics from natural product l-vasicine as anti-hypertensive agents” (Bioorg Med Chem, 2017).

What was measured:
[1] = tested on: Mus musculus; test: Acute toxicity in Swiss mouse assessed as serum glucose level up to 2000 mg/kg, po measured on day 14 post dose (reference value: 105.78 +/- 5.217 mg/dl); assay type: organism-based; conditions: in vivo
[2] = tested on: Mus musculus; test: Acute toxicity in Swiss mouse assessed as mortality up to 2000 mg/kg, po measured up to 13 days post dose; assay type: organism-based; conditions: in vivo, 312 h
[3] = tested on: Rattus norvegicus; test: Anti-hypertensive activity in Wistar rat assessed as diastolic blood pressure at 10 mg/kg, iv after 150 mins (reference value: 77.15 to 94.4 mmHg); assay type: functional
[4] = tested on: Rattus norvegicus; test: Anti-hypertensive activity in Wistar rat assessed as diastolic blood pressure at 10 mg/kg, iv after 180 mins (reference value: 77.15 to 94.4 mmHg); assay type: functional
[5] = tested on: Rattus norvegicus; test: Anti-hypertensive activity in Wistar rat assessed as systolic blood pressure at 10 mg/kg, iv after 5 mins (reference value: 110 to 124.6 mmHg); assay type: functional
[6] = tested on: Rattus norvegicus; test: Anti-hypertensive activity in Wistar rat assessed as diastolic blood pressure at 10 mg/kg, iv after 15 mins (reference value: 77.15 to 94.4 mmHg); assay type: functional
[7] = tested on: Rattus norvegicus; test: Anti-hypertensive activity in Wistar rat assessed as systolic blood pressure at 10 mg/kg, iv after 120 mins (reference value: 110 to 124.6 mmHg); assay type: functional
[8] = tested on: Mus musculus; test: Acute toxicity in Swiss mouse assessed as RBC count up to 2000 mg/kg, po measured on day 14 post dose (reference value: 8.97 +/- 3.15 10^6/microL); assay type: organism-based; conditions: in vivo
[9] = tested on: Rattus norvegicus; test: Anti-hypertensive activity in Wistar rat assessed as diastolic blood pressure at 10 mg/kg, iv after 5 mins (reference value: 77.15 to 94.4 mmHg); assay type: functional
[10] = tested on: Rattus norvegicus; test: Anti-hypertensive activity in Wistar rat assessed as diastolic blood pressure at 10 mg/kg, iv after 60 mins (reference value: 77.15 to 94.4 mmHg); assay type: functional
[11] = tested on: Mus musculus; test: Acute toxicity in Swiss mouse assessed as eosinophil level up to 2000 mg/kg, po measured on day 14 post dose (reference value: 2.233%); assay type: organism-based; conditions: in vivo
[12] = tested on: Mus musculus; test: Acute toxicity in Swiss mouse assessed as serum triglyceride level up to 2000 mg/kg, po measured on day 14 post dose (reference value: […]); assay type: organism-based; conditions: in vivo
[13] = tested on: Mus musculus; test: Acute toxicity in Swiss mouse assessed as effect on feed up to 2000 mg/kg, po measured up to 13 days post dose; assay type: organism-based; conditions: in vivo, 312 h
[14] = tested on: Mus musculus; test: Acute toxicity in Swiss mouse assessed as mean corpuscular hemoglobin up to 2000 mg/kg, po measured on day 14 post dose (reference value: 13.78 +/- 5.29 pg); assay type: organism-based; conditions: in vivo
[15] = tested on: Mus musculus; test: Acute toxicity in Swiss mouse assessed as basophil level up to 2000 mg/kg, po measured on day 14 post dose (reference value: 0.1%); assay type: organism-based; conditions: in vivo
[16] = tested on: Mus musculus; test: Acute toxicity in Swiss mouse assessed as hemoglobin level up to 2000 mg/kg, po measured on day 14 post dose (reference value: 12.342 +/- 4.42 g/dl); assay type: organism-based; conditions: in vivo
[17] = tested on: Mus musculus; test: Acute toxicity in Swiss mouse assessed as change in general appearance up to 2000 mg/kg, po measured up to 13 days post dose; assay type: organism-based; conditions: in vivo, 312 h
[18] = tested on: Mus musculus; test: Acute toxicity in Swiss mouse assessed as WBC count up to 2000 mg/kg, po measured on day 14 post dose (reference value: 8.35 +/- 4.53 10^3/microL); assay type: organism-based; conditions: in vivo
[19] = tested on: Mus musculus; test: Acute toxicity in Swiss mouse assessed as platelet level up to 2000 mg/kg, po measured on day 14 post dose (reference value: 1542.71 +/- 474.34 10^3/microL); assay type: organism-based; conditions: in vivo
[20] = tested on: Rattus norvegicus; test: Anti-hypertensive activity in Wistar rat assessed as systolic blood pressure at 10 mg/kg, iv after 150 mins (reference value: 110 to 124.6 mmHg); assay type: functional
[21] = tested on: Rattus norvegicus; test: Anti-hypertensive activity in Wistar rat assessed as systolic blood pressure at 10 mg/kg, iv after 15 mins (reference value: 110 to 124.6 mmHg); assay type: functional
[22] = tested on: Rattus norvegicus; test: Anti-hypertensive activity in Wistar rat assessed as systolic blood pressure at 10 mg/kg, iv after 30 mins (reference value: 110 to 124.6 mmHg); assay type: functional
[23] = tested on: Mus musculus; test: Acute toxicity in Swiss mouse assessed as cholesterol level in serum up to 2000 mg/kg, po measured on day 14 post dose (reference value: […]); assay type: organism-based; conditions: in vivo
[24] = tested on: Mus musculus; test: Acute toxicity in Swiss mouse assessed as ALT level in serum up to 2000 mg/kg, po measured on day 14 post dose (reference value: 49.87 +/- 3.277 IU/L); assay type: organism-based; conditions: in vivo
[25] = tested on: Mus musculus; test: Acute toxicity in Swiss mouse assessed as effect on water consumption up to 2000 mg/kg, po measured up to 13 days post dose; assay type: organism-based; conditions: in vivo, 312 h
[26] = tested on: Mus musculus; test: Acute toxicity in Swiss mouse assessed as change in body weight up to 2000 mg/kg, po measured once in a week up to 13 days post dose; assay type: organism-based; conditions: in vivo, 312 h
[27] = tested on: Mus musculus; test: Acute toxicity in Swiss mouse assessed as AST level in serum up to 2000 mg/kg, po measured on day 14 post dose (reference value: 162.53 +/- 5.455 IU/L); assay type: organism-based; conditions: in vivo
[28] = tested on: Mus musculus; test: Acute toxicity in Swiss mouse assessed as mean corpuscular volume up to 2000 mg/kg, po measured on day 14 post dose (reference value: 44.85 +/- 17.65 fL); assay type: organism-based; conditions: in vivo
[29] = tested on: Mus musculus; test: Acute toxicity in Swiss mouse assessed as monocytes level up to 2000 mg/kg, po measured on day 14 post dose (reference value: 3.66%); assay type: organism-based; conditions: in vivo
[30] = tested on: Mus musculus; test: Acute toxicity in Swiss mouse assessed as lymphocytes level up to 2000 mg/kg, po measured on day 14 post dose (reference value: 79.433%); assay type: organism-based; conditions: in vivo
[31] = tested on: Rattus norvegicus; test: Anti-hypertensive activity in iv dosed Wistar rat assessed as decrease in blood pressure up to 180 mins; assay type: functional, organism-based
[32] = tested on: Mus musculus; test: Acute toxicity in Swiss mouse assessed as total protein level in serum up to 2000 mg/kg, po measured on day 14 post dose (reference value: 4.844 +/- 0.222 g/dl); assay type: organism-based; conditions: in vivo
[33] = tested on: Mus musculus; test: Acute toxicity in Swiss mouse assessed as uric acid level in serum up to 2000 mg/kg, po measured on day 14 post dose (reference value: […]); assay type: organism-based; conditions: in vivo
[34] = tested on: Rattus norvegicus; test: Anti-hypertensive activity in Wistar rat assessed as systolic blood pressure at 10 mg/kg, iv after 60 mins (reference value: 110 to 124.6 mmHg); assay type: functional
[35] = tested on: Rattus norvegicus; test: Anti-hypertensive activity in Wistar rat assessed as diastolic blood pressure at 10 mg/kg, iv after 30 mins (reference value: 77.15 to 94.4 mmHg); assay type: functional
[36] = tested on: Mus musculus; test: Acute toxicity in Swiss mouse assessed as serum creatinine level up to 2000 mg/kg, po measured on day 14 post dose (reference value: 0.418 +/- 0.0259 mg/dl); assay type: organism-based; conditions: in vivo
[37] = tested on: Rattus norvegicus; test: Anti-hypertensive activity in Wistar rat assessed as systolic blood pressure at 10 mg/kg, iv after 180 mins (reference value: 110 to 124.6 mmHg); assay type: functional
[38] = tested on: Mus musculus; test: Acute toxicity in Swiss mouse assessed as serum urea level up to 2000 mg/kg, po measured on day 14 post dose (reference value: 55.157 +/- 2.769 mg/dl); assay type: organism-based; conditions: in vivo
[39] = tested on: Mus musculus; test: Acute toxicity in Swiss mouse assessed as neutrophil level up to 2000 mg/kg, po measured on day 14 post dose (reference value: 14.56%); assay type: organism-based; conditions: in vivo
[40] = tested on: Mus musculus; test: Acute toxicity in Swiss mouse assessed as hematocrit up to 2000 mg/kg, po measured on day 14 post dose (reference value: 40.114 +/- 14.74%); assay type: organism-based; conditions: in vivo
[41] = tested on: Rattus norvegicus; test: Anti-hypertensive activity in Wistar rat assessed as diastolic blood pressure at 10 mg/kg, iv after 120 mins (reference value: 77.15 to 94.4 mmHg); assay type: functional

## O=C(c1ccccc1Nc1ccncc1)N1CC[C@H](O)C1
[1]
  Activity: 111.51 mg/dL
[2]
  Activity: Non-Toxic
[3]
  Activity: 73 mmHg
[4]
  Activity: 79.06 mmHg
[5]
  Activity: 88 mmHg
[6]
  Activity: 64.33 mmHg
[7]
  Activity: 85.46 mmHg
[8]
  Activity: 9.684 ×10⁶ /uL
[9]
  Activity: 66.01 mmHg
[10]
  Activity: 64.09 mmHg
[11]
  Activity: 3.457%
[12]
  Activity: 89.6 mg/dL
[13]
  Activity: Non-Toxic
[14]
  Activity: 13.77 pg
[15]
  Activity: 0.0714%
[16]
  Activity: 13.342 g/dL
[17]
  Activity: Non-Toxic
[18]
  Activity: 10.185 ×10³ /uL
[19]
  Activity: 1458.42 ×10³ /uL
[20]
  Activity: 87.13 mmHg
[21]
  Activity: 82.41 mmHg
[22]
  Activity: 80.19 mmHg
[23]
  Activity: 83 mg/dL
[24]
  Activity: 50.587 IU/L
[25]
  Activity: Non-Toxic
[26]
  Activity: Non-Toxic
[27]
  Activity: 145.84 IU/L
[28]
  Activity: 41.3 fL
[29]
  Activity: 3.128%
[30]
  Activity: 84.514%
[31]
  Activity: Dose-dependent effect
[32]
  Activity: 5.224 g/dL
[33]
  Activity: 2.81 mg/dL
[34]
  Activity: 79.29 mmHg
[35]
  Activity: 62.55 mmHg
[36]
  Activity: 0.435 mg/dL
[37]
  Activity: 108.8 mmHg
[38]
  Activity: 54.885 mg/dL
[39]
  Activity: 8.828%
[40]
  Activity: 40.1%
[41]
  Activity: 69.81 mmHg
